Biological target: T1, human OX2R (Homo sapiens, UniProt O43614)
T1 construct: expressed in transfected cells; host or cells: CHO (Chinese hamster ovary) cells grown under G418 selection
T1 sequence (O43614 1-444): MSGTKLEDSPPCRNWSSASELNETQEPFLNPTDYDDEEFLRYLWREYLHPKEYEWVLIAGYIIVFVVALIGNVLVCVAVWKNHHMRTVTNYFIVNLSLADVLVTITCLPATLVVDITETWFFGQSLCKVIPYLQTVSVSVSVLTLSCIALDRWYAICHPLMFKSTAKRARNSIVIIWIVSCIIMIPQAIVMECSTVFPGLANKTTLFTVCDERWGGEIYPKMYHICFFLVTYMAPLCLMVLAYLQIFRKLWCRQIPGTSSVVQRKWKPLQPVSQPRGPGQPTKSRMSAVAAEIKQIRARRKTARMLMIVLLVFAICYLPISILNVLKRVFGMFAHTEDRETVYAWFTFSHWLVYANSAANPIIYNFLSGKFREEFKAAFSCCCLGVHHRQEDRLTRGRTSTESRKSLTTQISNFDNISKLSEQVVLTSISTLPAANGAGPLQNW
Assay: IPOne (IP-1 accumulation) assay in CHO cells expressing human OX2R
Format: cell-based
Settings: for EC50: CHO cells expressing human OX2R, IP-One assay, 2 h incubation, four parameter logistic fit, read-out: OX2R Potency, EC50; for % of maximum agonist effect (relative to Orexin A): percent effect vs mean max effect of a reference compound at 1 uM (100% activity vs Orexin A), human OX2R
In short: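 CHO cells stably expressing human OX2R, grown in Iscove's modified DMEM with 10% FBS; agonist-driven IP-1 accumulation via the Gαq pathway measured by HTRF (D2/AB-cryptate detection after lysis). EC50 taken as the inflection point of a four-parameter logistic fit.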

Structure (SMILES)	EC50 [nM]	% of maximum agonist effect (relative to Orexin A) [%]
CCN(C(=O)NC(CN1CCOC1=O)C(F)(F)F)[C@@H](c1cc(-c2cn3ccnc3c(OC)n2)c(OC)cn1)C(F)(F)F (stereo partly drawn) [Example 2-43, 1-ethyl-1-((S)-2,2,2-trifluoro-1-(5-methoxy-4-(8-methoxyimidazo[1,2-a]pyrazin-6-yl)pyridin-2-yl)ethyl)-3-(1,1,1-trifluoro-3-(2-oxooxazolidin-3-yl)propan-2-yl)urea]	1.1	99.8
CCN(C(=O)NC(Cn1ccnn1)C(F)(F)F)[C@H](C)c1cccc(-c2cn3ccnc3c(OC)n2)c1 (stereo partly drawn) [Example 1-17, 1-ethyl-1-((R)-1-(3-(8-methoxyimidazo[1,2-a]pyrazin-6-yl)phenyl)ethyl)-3-(1,1,1-trifluoro-3-(1H-1,2,3-triazol-1-yl)propan-2-yl)urea]	10.5	98.7
CCN(C(=O)NC(COC(C)=O)C(F)(F)F)[C@H](C)c1cccc(-c2cn3ccnc3c(OC)n2)c1 (stereo partly drawn) [Example 22, 2-(3-ethyl-3-((R)-1-(3-(8-methoxyimidazo[1,2-a]pyrazin-6-yl)phenylethyl)ureido)-3,3,3-trifluoropropyl acetate]	25.3	97.0
CC[C@H](CCC(F)(F)F)NC(=O)N(CC)[C@H](C)c1cccc(-c2cc(COC)c3nccn3c2)c1 [Example 7-4, 1-ethyl-1-((R)-1-(3-(8-(methoxymethyl)imidazo[1,2-a]pyridin-6-yl)phenyl)ethyl)-3-((R)-6,6,6-trifluorohexan-3-yl)urea]	595	97.8
CCN(C(=O)NC(CC(F)F)C(F)(F)F)[C@H](C)c1cccc(-c2cn3ccnc3c(OC)n2)c1 (stereo partly drawn) [Example 2-52, 1-ethyl-1-((R)-1-(3-(8-methoxyimidazo[1,2-a]pyrazin-6-yl)phenyl)ethyl)-3-(1,1,1,4,4-pentafluorobutan-2-yl)urea]	35.8	100.6
CCN(C(=O)N[C@@H](CCC#N)C(F)(F)F)[C@@H](c1cc(-c2cn3ccnc3c(OC)n2)c(OC)cn1)C(F)(F)F [Example 2-35, 3-((S)-4-cyano-1,1,1-trifluorobutan-2-yl)-1-ethyl-1-((S)-2,2,2-trifluoro-1-(5-methoxy-4-(8-methoxyimidazo[1,2-a]pyrazin-6-yl)pyridin-2-yl)ethyl)urea]	0.9	102.3
CC[C@H](CCC(F)(F)F)NC(=O)N(C)[C@H](C)c1cccc(-c2cn3ccnc3c(OC)n2)c1 [Example 2-58, 1-((R)-1-(3-(8-methoxyimidazo[1,2-a]pyrazin-6-yl)phenyl)ethyl)-1-methyl-3-((R)-6,6,6-trifluorohexan-3-yl)urea]	17.8	100.0
CCN(C(=O)N[C@@H](CCC(F)(F)F)C(F)(F)F)[C@H](C)c1cnc(O)c(-c2cc(OC)n3nccc3c2)c1 [Example 30, 1-ethyl-3-((S)-1,1,1,5,5,5-hexafluoropentan-2-yl)-1-((R)-1-(6-hydroxy-5-(7-methoxypyrazolo[1,5-a]pyridin-5-yl)pyridin-3-yl)ethyl)urea]	4730	97.0
CCN(C(=O)N[C@@H](CCC(F)(F)F)C(F)(F)F)C(c1cc(-c2cn3cc(C)nc3c(OC)n2)c(OC)cn1)C1CC1 (stereo partly drawn) [Example 2-16, 1-(cyclopropyl(5-methoxy-4-(8-methoxy-2-methylimidazo[1,2-a]pyrazin-6-yl)pyridin-2-yl)methyl)-1-ethyl-3-((S)-1,1,1,5,5,5-hexafluoropentan-2-yl)urea]	54.5	101.1
CCN(C(=O)NC(C#N)C1CCCC(F)(F)C1)[C@H](C)c1cccc(-c2cn3ccnc3c(OC)n2)c1 (single isomer, unassigned) [Example 16]	3.2	100.8
CCN(C(=O)N[C@@H](CCC(F)(F)F)C(F)(F)F)C(c1cc(-c2cn3cc(C)nc3c(OC)n2)c(OC)cn1)C(F)F (stereo partly drawn) [Example 2-17, 1-(2,2-difluoro-1-(5-methoxy-4-(8-methoxy-2-methylimidazo[1,2-a]pyrazin-6-yl)pyridin-2-yl)ethyl)-1-ethyl-3-((S)-1,1,1,5,5,5-hexafluoropentan-2-yl)urea]	3.2	101.7
CCN(C(=O)NC(Cn1nccn1)C(F)(F)F)[C@H](C)c1cccc(-c2cn3ccnc3c(OC)n2)c1 (stereo partly drawn) [Example 1-16, 1-ethyl-1-((R)-1-(3-(8-methoxyimidazo[1,2-a]pyrazin-6-yl)phenyl)ethyl)-3-(1,1,1-trifluoro-3-(2H-1,2,3-triazol-2-yl)propan-2-yl)urea]	2.8	100.1
CCN(C(=O)NC1CCC(C(F)(F)F)N(C)C1)[C@@H](c1cccc(-c2cn3ccnc3c(OC)n2)c1)C(F)(F)F (stereo partly drawn) [Example 2-67, 1-ethyl-3-(1-methyl-6-(trifluoromethyl)piperidin-3-yl)-1-((S)-2,2,2-trifluoro-1-(3-(8-methoxyimidazo[1,2-a]pyrazin-6-yl)phenyl)ethyl)urea]	7.7	98.7
COc1cnc([C@H](N(C(=O)N[C@@H](CCC(F)(F)F)C(F)(F)F)C2CC2)C(F)(F)F)cc1-c1cn2cc(C)nc2c(OC)n1 [Example 2-19, 1-cyclopropyl-3-((S)-1,1,1,5,5,5-hexafluoropentan-2-yl)-1-(2,2,2-trifluoro-1-(5-methoxy-4-(8-methoxy-2-methylimidazo[1,2-a]pyrazin-6-yl)pyridin-2-yl)ethyl)urea]	5.7	102.0

Now from value to compound:

EC50 [nM]	% of maximum agonist effect (relative to Orexin A) [%]	Structure (SMILES)
35.2	97.9	CCN(C(=O)N[C@@H](CCC(F)(F)F)C(F)(F)F)C(c1cc(-c2cn3ccnc3c(OC)n2)cc(OC)n1)C(F)(F)F (stereo partly drawn) [Example 10-16, 1-ethyl-3-((S)-1,1,1,5,5,5-hexafluoropentan-2-yl)-1-(2,2,2-trifluoro-1-(6-methoxy-4-(8-methoxyimidazo[1,2-a]pyrazin-6-yl)pyridin-2-yl)ethyl)urea]
1	99.1	CCN(C(=O)N[C@@H](CCC(F)(F)F)C(F)(F)F)C(C)c1cc(-c2cc(F)c3nccn3c2)c(OC)cn1 (stereo partly drawn) [Example 15-2, 1-ethyl-1-(1-(4-(8-fluoroimidazo[1,2-a]pyridin-6-yl)-5-methoxypyridin-2-yl)ethyl)-3-((S)-1,1,1,5,5,5-hexafluoropentan-2-yl)urea]
17.4	96.7	CCN(C(=O)N[C@@H](CCC(F)(F)F)C(F)(F)F)[C@H](C)c1cccc(-c2ccc3ncc(N)n3c2)c1 [Example 8-12, 1-((R)-1-(3-(3-aminoimidazo[1,2-a]pyridin-6-yl)phenyl)ethyl)-1-ethyl-3-((S)-1,1,1,5,5,5-hexafluoropentan-2-yl)urea]
25.9	98.7	CC[C@H](CCC(F)(F)F)NC(=O)N(CC)[C@H](C)c1ccc(OC)c(-c2cc(N)c3nccn3c2)c1 [Example 8-4, 1-((R)-1-(3-(8-aminoimidazo[1,2-a]pyridin-6-yl)-4-methoxyphenyl)ethyl)-1-ethyl-3-((R)-6,6,6-trifluorohexan-3-yl)urea]
7.3	101.3	CCN(C(=O)N[C@@H](CCC(F)(F)F)C(F)(F)F)C(c1cc(-c2cc(OC)c3ncccc3c2)c(OC)cn1)C(F)(F)F (stereo partly drawn) [Example 10-11, 1-ethyl-3-((S)-1,1,1,5,5,5-hexafluoropentan-2-yl)-1-(2,2,2-trifluoro-1-(5-methoxy-4-(8-methoxyquinolin-6-yl)pyridin-2-yl)ethyl)urea]
1.5	100.3	CCN(C(=O)N[C@@H](CCC(F)(F)F)C(F)(F)F)[C@H](C)c1cc(-c2cn3ccnc3c(OC)n2)ccn1 [Example 14-1, 1-ethyl-3-((S)-1,1,1,5,5,5-hexafluoropentan-2-yl)-1-((R)-1-(4-(8-methoxyimidazo[1,2-a]pyrazin-6-yl)pyridin-2-yl)ethyl)urea]
11.9	99.8	CCN(C(=O)N[C@@H](CCC(F)(F)F)C(F)(F)F)[C@H](C)c1cnc(C)c(-c2cn3ccnc3c(OC)n2)c1 [Example 10-18, 1-ethyl-3-((S)-1,1,1,5,5,5-hexafluoropentan-2-yl)-1-((R)-1-(5-(8-methoxyimidazo[1,2-a]pyrazin-6-yl)-6-methylpyridin-3-yl)ethyl)urea]

— US12692262B2, “Substituted ureas as orexin receptor agonists” (Merck Sharp & Dohme LLC, priority 2020, dated 2026)
